Measurements taken from ChEMBL document CHEMBL5365481, “Design, Synthesis, and Activity Evaluation of Novel Dual-Target Inhibitors with Antifungal and Immunoregulatory Properties” (J Med Chem, 2023).
Converted amounts (≈) assume the structure as drawn. The source made the active and inactive calls. The calls are words filed in the database; no cut-off is given here.

How the values were obtained:
Candida albicans [1] = test: Antifungal activity against Candida albicans ATCC SC5314 assessed as inhibition of fungal growth incubated for 72 hrs by CLSI based liquid medium microdilution method; assay type: functional
Cryptococcus neoformans = test: Antifungal activity against Cryptococcus neoformans ZKCC 2209 assessed as inhibition of fungal growth incubated for 72 hrs by CLSI based liquid medium microdilution method; assay type: functional
Pichia kudriavzevii = test: Antifungal activity against Candida krusei ATCC 6258 assessed as inhibition of fungal growth incubated for 72 hrs by CLSI based liquid medium microdilution method; assay type: functional
Candida tropicalis = test: Antifungal activity against Candida tropicalis ATCC 1369 assessed as inhibition of fungal growth incubated for 72 hrs by CLSI based liquid medium microdilution method; assay type: functional
Aspergillus fumigatus = test: Antifungal activity against Aspergillus fumigatus KM8001 assessed as inhibition of fungal growth incubated for 72 hrs by CLSI based liquid medium microdilution method; assay type: functional
Candida albicans [2] = test: Antifungal activity against fluconazole-resistant Candida albicans 17# assessed as inhibition of fungal growth incubated for 72 hrs by CLSI based liquid medium microdilution method; assay type: functional
Candida albicans [3] = test: Antifungal activity against fluconazole-resistant Candida albicans 632 assessed as inhibition of fungal growth incubated for 72 hrs by CLSI based liquid medium microdilution method; assay type: functional
Candida albicans [4] = test: Antifungal activity against fluconazole-resistant Candida albicans 901 assessed as inhibition of fungal growth incubated for 72 hrs by CLSI based liquid medium microdilution method; assay type: functional
Candida albicans [5] = test: Antifungal activity against fluconazole-resistant Candida albicans 904 assessed as inhibition of fungal growth incubated for 72 hrs by CLSI based liquid medium microdilution method; assay type: functional
[6] = biological target: T1, Lanosterol 14-alpha demethylase (Candida albicans (strain SC5314 / ATCC MYA-2876) (Yeast), UniProt P10613); test: Inhibition of Candida albicans ATCC SC5314 CYP51 using lanosterol as substrate incubated for 30 mins by HPLC assay
T1 sequence (P10613 whole entry): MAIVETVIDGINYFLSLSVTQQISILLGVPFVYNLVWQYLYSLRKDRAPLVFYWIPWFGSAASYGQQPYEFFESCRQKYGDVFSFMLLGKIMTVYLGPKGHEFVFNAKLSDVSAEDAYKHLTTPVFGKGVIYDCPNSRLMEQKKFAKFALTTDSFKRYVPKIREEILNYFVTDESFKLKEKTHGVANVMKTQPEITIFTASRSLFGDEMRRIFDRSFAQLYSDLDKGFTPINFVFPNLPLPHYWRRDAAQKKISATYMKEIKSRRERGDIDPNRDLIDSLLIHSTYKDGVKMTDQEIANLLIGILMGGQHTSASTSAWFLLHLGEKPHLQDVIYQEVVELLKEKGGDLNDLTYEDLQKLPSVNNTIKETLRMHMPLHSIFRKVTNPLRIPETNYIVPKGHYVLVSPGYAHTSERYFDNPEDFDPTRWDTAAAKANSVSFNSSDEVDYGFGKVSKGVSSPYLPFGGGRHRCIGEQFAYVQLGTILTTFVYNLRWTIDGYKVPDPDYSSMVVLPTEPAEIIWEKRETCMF

[7] = biological target: T1, Lanosterol 14-alpha demethylase; test: Inhibition of Candida albicans ATCC SC5314 CYP51 assessed as ergosterol content at 4 ug/ml measured after 16 hrs by GC-MS analysis (reference value: 92.71%); design: scale not given: the % may be the effect or the level left; settings: at 4 µg/mL
[8] = biological target: T1, Lanosterol 14-alpha demethylase; test: Inhibition of Candida albicans ATCC SC5314 CYP51 assessed as lanosterol content at 4 ug/ml measured after 16 hrs by GC-MS analysis relative to control; design: scale not given: the % may be the effect or the level left; settings: at 4 µg/mL
[9] = biological target: T1, Lanosterol 14-alpha demethylase; test: Inhibition of Candida albicans ATCC SC5314 CYP51 assessed as eburicol content at 4 ug/ml measured after 16 hrs by GC-MS analysis (Rvb= 3.47%); design: scale not given: the % may be the effect or the level left; settings: at 4 µg/mL
Candida albicans [10] = test: Antifungal activity against Candida albicans ATCC SC5314 assessed as change in osmotic pressure at 1 microM/ml incubated for 48 hrs by absorbance based assay; assay type: functional, organism-based
Candida albicans [11] = test: Antifungal activity against Candida albicans ATCC SC5314 assessed as change in structural stability at 1 microM/ml incubated for 48 hrs by absorbance based assay; assay type: functional, organism-based
Candida albicans [12] = test: Induction of ROS generation in Candida albicans ATCC SC5314 assessed as increase in fluorescence intensity at 1 microM/ml incubated for 48 hrs by fluorescent microscopy; assay type: functional, organism-based
Candida albicans [13] = test: Induction of mitochondrial membrane depolarization in Candida albicans ATCC SC5314 assessed as normal cells at 1 microM/ml incubated for 24 hrs by JC-1 staining based flow cytometry assay (reference value: 94.4 +/- 1.15%); assay type: functional
Candida albicans [14] = test: Induction of apoptosis in Candida albicans ATCC SC5314 assessed as normal cells at 1 microM/ml incubated for 48 hrs by Hoechst 33258/PI staining based flow cytometry (Rvb= 94.8 +/- 0.3%); assay type: functional
Candida albicans [15] = test: Induction of apoptosis in Candida albicans ATCC SC5314 assessed as early apoptotic cells at 1 microM/ml incubated for 48 hrs by Hoechst 33258/PI staining based flow cytometry (Rvb= 5.1 +/- 0.3%); assay type: functional
Candida albicans [16] = test: Induction of apoptosis in Candida albicans ATCC SC5314 assessed as late apoptotic cells at 1 microM/ml incubated for 48 hrs by Hoechst 33258/PI staining based flow cytometry (Rvb= 0.05 +/- 0.01%); assay type: functional
Candida albicans [17] = test: Induction of apoptosis in Candida albicans ATCC SC5314 assessed as necrotic cells at 1 microM/ml incubated for 48 hrs by Hoechst 33258/PI staining based flow cytometry (Rvb= 0.03 +/- 0.01%); assay type: functional
Candida albicans [18] = test: In vivo antifungal activity against Candida albicans ATCC SC5314 infected in BALB/c mouse assessed as increase in body weight at 10 ug, ip for 14 days; assay type: functional, organism-based; settings: dose 10.0 µg, time 14.0 day
Candida albicans [19] = test: In vivo antifungal activity against Candida albicans ATCC SC5314 infected in BALB/c mouse assessed as shrinkage in infected region at 10 ug, ip for 14 days; assay type: functional, organism-based; settings: dose 10.0 µg, time 14.0 day
Candida albicans [20] = test: In vivo antifungal activity against Candida albicans ATCC SC5314 infected in BALB/c mouse assessed as decrease in number of exogenous fungal cells at 10 ug, ip for 14 days by H and E staining based microscopy; assay type: functional, organism-based; settings: dose 10.0 µg, time 14.0 day
[21] = Toxicity in BALB/c mouse infected with Candida albicans ATCC SC5314 assessed as morphological changes in heart at 10 ug, ip for 14 days by H and E staining based microscopy; assay type: organism-based; settings: in vivo, 336 h, dose 10 µg, time 14 day
[22] = Toxicity in BALB/c mouse infected with Candida albicans ATCC SC5314 assessed as morphological changes in spleen at 10 ug, ip for 14 days by H and E staining based microscopy; assay type: organism-based; settings: in vivo, 336 h, dose 10 µg, time 14 day
[23] = Toxicity in BALB/c mouse infected with Candida albicans ATCC SC5314 assessed as morphological changes in lung at 10 ug, ip for 14 days by H and E staining based microscopy; assay type: organism-based; settings: in vivo, 336 h, dose 10 µg, time 14 day
[24] = Toxicity in BALB/c mouse infected with Candida albicans ATCC SC5314 assessed as morphological changes in kidney at 10 ug, ip for 14 days by H and E staining based microscopy; assay type: organism-based; settings: in vivo, 336 h, dose 10 µg, time 14 day
[25] = Toxicity in BALB/c mouse infected with Candida albicans ATCC SC5314 assessed as plasma AST level at 10 ug, ip for 14 days; assay type: organism-based; settings: in vivo, 336 h, dose 10 µg, time 14 day
[26] = Toxicity in BALB/c mouse infected with Candida albicans ATCC SC5314 assessed as plasma BUN level at 10 ug, ip for 14 days; assay type: organism-based; settings: in vivo, 336 h, dose 10 µg, time 14 day
Candida albicans [27] = test: In vivo antifungal activity against Candida albicans ATCC SC5314 infected in BALB/c mouse assessed as decrease in COX2 expression level at 10 ug, ip for 14 days by Western blot analysis; assay type: functional, organism-based; settings: dose 10.0 µg, time 14.0 day
Candida albicans [28] = test: In vivo antifungal activity against Candida albicans ATCC SC5314 infected in BALB/c mouse assessed as decrease in IFN-gamma expression level at 10 ug, ip for 14 days by Western blot analysis; assay type: functional, organism-based; settings: dose 10.0 µg, time 14.0 day
Candida albicans [29] = test: In vivo antifungal activity against Candida albicans ATCC SC5314 infected in BALB/c mouse assessed as decrease in IL-2 expression level at 10 ug, ip for 14 days by immunohistochemical analysis; assay type: functional, organism-based; settings: dose 10.0 µg, time 14.0 day
Candida albicans [30] = test: In vivo antifungal activity against Candida albicans ATCC SC5314 infected in BALB/c mouse assessed as decrease in IFN-gamma expression level at 10 ug, ip for 14 days by immunohistochemical analysis; assay type: functional, organism-based; settings: dose 10.0 µg, time 14.0 day

| SMILES | MIC50 (Candida albicans [1]) | MIC50 (Cryptococcus neoformans) | MIC50 (Pichia kudriavzevii) | MIC50 (Candida tropicalis) | MIC50 (Aspergillus fumigatus) | MIC50 (Candida albicans [2]) | MIC50 (Candida albicans [3]) | MIC50 (Candida albicans [4]) | MIC50 (Candida albicans [5]) | IC50 [6] | Activity [7] | Activity [8] | Activity [9] | Activity (Candida albicans [10]) | Activity (Candida albicans [11]) | Activity (Candida albicans [12]) | Activity (Candida albicans [13]) | Activity (Candida albicans [14]) | Activity (Candida albicans [15]) | Activity (Candida albicans [16]) | further results |
| --- | --- | --- | --- | --- | --- | --- | --- | --- | --- | --- | --- | --- | --- | --- | --- | --- | --- | --- | --- | --- | --- |
| CC(C)c1ccc(C(=O)N2CCC(NC(=O)c3nc(-n4ccnc4)c4ccccc4n3)CC2)cc1 | 0.25 µg/mL (≈ 0.534 µM) | 0.5 µg/mL (≈ 1.07 µM) | 0.5 µg/mL (≈ 1.07 µM) | 0.25 µg/mL (≈ 0.534 µM) | 2 µg/mL (≈ 4.27 µM) | 2 µg/mL (≈ 4.27 µM) | 1 µg/mL (≈ 2.13 µM) | 4 µg/mL (≈ 8.54 µM) | > 8 µg/mL | 205 nM | 20.92% | 29.53% | 45.04% | Active | Active | Active | 52.3% | 45.3% | 54.5% | 0.19% | Activity (Candida albicans [17]): 0.03%; Activity (Candida albicans [18]): Active; Activity (Candida albicans [19]): Active; Activity (Candida albicans [20]): Active; Activity [21]: Non-Toxic; Activity [22]: Non-Toxic; Activity [23]: Non-Toxic; Activity [24]: Non-Toxic; Activity [25]: 66.8 IU/L; Activity [26]: 20.2 mM; Activity (Candida albicans [27]): Active; Activity (Candida albicans [28]): Active; Activity (Candida albicans [29]): Active; Activity (Candida albicans [30]): Active |
| CC(=O)c1ccc(C(=O)N2CCC(NC(=O)c3nc(-n4cncn4)c4ccccc4n3)CC2)cc1 | 0.25 µg/mL (≈ 0.532 µM) | 0.5 µg/mL (≈ 1.06 µM) | 0.25 µg/mL (≈ 0.532 µM) | 0.25 µg/mL (≈ 0.532 µM) | 1 µg/mL (≈ 2.13 µM) | 1 µg/mL (≈ 2.13 µM) | 1 µg/mL (≈ 2.13 µM) | 4 µg/mL (≈ 8.52 µM) | 2 µg/mL (≈ 4.26 µM) | 263 nM | 18.64% | 32.47% | 43.15% | Active | Active | Active | 42.6% | 42% | 57.9% | 0.07% | Activity (Candida albicans [17]): 0.02%; Activity (Candida albicans [18]): Active; Activity (Candida albicans [19]): Active; Activity (Candida albicans [20]): Active; Activity [21]: Non-Toxic; Activity [22]: Non-Toxic; Activity [23]: Non-Toxic; Activity [24]: Non-Toxic; Activity [25]: 54.9 IU/L; Activity [26]: 17.9 mM; Activity (Candida albicans [27]): Active; Activity (Candida albicans [28]): Active; Activity (Candida albicans [29]): Active; Activity (Candida albicans [30]): Active |
| OC(Cn1cncn1)(Cn1cncn1)c1ccc(F)cc1F [FLUCONAZOLE] | 0.5 µg/mL (≈ 1.63 µM) | 1 µg/mL (≈ 3.27 µM) | 1 µg/mL (≈ 3.27 µM) | 0.5 µg/mL (≈ 1.63 µM) | > 8 µg/mL | > 8 µg/mL | > 8 µg/mL | > 8 µg/mL | > 8 µg/mL | 159 nM | 17.84% | 30.06% | 46.52% | Active | Active | Active | 65.4% | 44.6% | 55.3% | 0.07% | Activity (Candida albicans [17]): 0.02%; Activity (Candida albicans [18]): Active; Activity (Candida albicans [19]): Active; Activity (Candida albicans [20]): Active; Activity [21]: Non-Toxic; Activity [22]: Non-Toxic; Activity [23]: Non-Toxic; Activity [24]: Non-Toxic; Activity [25]: 79.7 IU/L; Activity [26]: 24.2 mM; Activity (Candida albicans [27]): Active; Activity (Candida albicans [28]): Active; Activity (Candida albicans [29]): Active; Activity (Candida albicans [30]): Active |
